Data reported in patent US7186701B2, “Dehydrating agent and method for dehydrating moist article using the agent and dehydrated article obtained by the method” (Kabushiki Kaisha Hayashibara Seibutsu Kagaku Kenkyujo, priority 2001, dated 2007).

Experiments:
[1] = Saturation concentration of cyclotetrasaccharide in water; format: physicochemical
From the text: The resulting each saturated solution of cyclotetrasaccharide was membrane filtered to remove undissolved cyclotetrasaccharide, and each filtrate was then examined for moisture content by the drying loss method to determine a saturation concentration of cyclotetrasaccharide at respective temperatures.

Thermostability = format: physicochemical; conditions: 10% (w/v) aqueous solution, 120° C.; for Purity (%) after heating: HPLC
Experimental: After the heating, the aqueous solutions were cooled under atmospheric conditions and measured for coloration degree and determined for purity on HPLC. The coloration degree of each solution was evaluated based on the absorbance in a cell with a 1-cm light pass at a wavelength of 480 nm.

pH stability = format: physicochemical; conditions: 4% (w/v), 100° C., 24 hours; for Purity (%) after heating: HPLC
Experimental: Eight milliliters of each solution was placed in a glass test tube, followed by sealing and then heating the test tube at 100° C. for 24 hours. After the heating, each solution was cooled and measured for coloration degree and determined for purity on HPLC. The coloration degree was evaluated based on the absorbance in a cell with a 1-cm light pass at a wavelength of 480 nm.

[2] = Amino carbonyl reaction with polypeptone; format: physicochemical; conditions: 10% (w/v) with 5% (w/v) polypeptone, 100° C., minus control
Experimental: Four milliliter aliquots of the resulting solution were placed in glass test tubes, sealed, and heated at 100° C. for 30 to 90 min. After allowing to stand for cooling at ambient temperature, each of the resulting solution was measured for coloration degree to examine their amino carbonyl reactivity. In parallel, as a control, a solution with only polypeptone was provided and treated similarly as above. The coloration degree was evaluated based on the level of the absorbance, which had been measured in a cell with 1-cm light pass at a wavelength of 480 nm, minused that of the control.

Inclusion action = format: physicochemical
Experimental: To 100 g aliquots of the aqueous solution was added 2 g of methanol, 3 g of ethanol, or 4.6 g acetic acid to be included by the cyclotetrasaccharide. Thereafter, each of the resulting solutions was filtered to remove non-inclusion products, and the filtrates were dried in vacuo. As a control, similar inclusion products were prepared by using “ISOELITE™ P”, a branched cyclodextrin commercialized by Maruha K.K., Tokyo, Japan, which were known to have inclusion ability.
To measure the amount of the inclusion products in the resulting lyophilized powders, one gram of each of the powders was dissolved in five milliliters of water and extracted after admixing with five milliliters of diethylether. The extraction was repeated, and the resulting extracts were quantified on gas chromatography.

[3] = test system: internal content of rat cecum; test: Fermentation test; format: in vitro ADME
Experimental: The internal content of rat cecum was collected by anesthetizing a Wister male rat with ether, anatomizing the rat, collecting the internal content under anaerobic conditions, and suspending the resultant with 4-fold volumes of a 0.1 M aqueous solution of sodium bicarbonate. The cyclotetrasaccharide was added to the internal content of rat cecum in an amount of about 7% by weight, and the levels of cyclotetrasaccharide remained just after and 12 hours after the addition of the internal content were quantified on gas chromatography.

[4] = test system: Bacteroides vulgatus JCM 5826; test: Assimilation test; format: cell-based; conditions: 0.5% saccharide in PYF medium, 37° C., four days, anaerobic
[5] = test system: Escherichia coli IFO 3301; test: Assimilation test; format: cell-based; conditions: 0.5% saccharide in PYF medium, 37° C., four days, anaerobic
[6] = test system: Eubacterium aerofaciens ATCC 25986; test: Assimilation test; format: cell-based; conditions: 0.5% saccharide in PYF medium, 37° C., four days, anaerobic
[7] = test system: Lactobacillus acidophilus JCM 1132; test: Assimilation test; format: cell-based; conditions: 0.5% saccharide in PYF medium, 37° C., four days, anaerobic
mice = test: Acute toxicity test, oral; format: in vivo; conditions: oral administration to mice
From the text: Based on this, the LD50 of cyclotetrasaccharide was at least 50 g/kg mouse body weight, though the value was […].

salivary amylase = molecular target: T1, salivary amylase (Homo sapiens, UniProt P0DUB6)
T1 sequence (P0DUB6 16-511): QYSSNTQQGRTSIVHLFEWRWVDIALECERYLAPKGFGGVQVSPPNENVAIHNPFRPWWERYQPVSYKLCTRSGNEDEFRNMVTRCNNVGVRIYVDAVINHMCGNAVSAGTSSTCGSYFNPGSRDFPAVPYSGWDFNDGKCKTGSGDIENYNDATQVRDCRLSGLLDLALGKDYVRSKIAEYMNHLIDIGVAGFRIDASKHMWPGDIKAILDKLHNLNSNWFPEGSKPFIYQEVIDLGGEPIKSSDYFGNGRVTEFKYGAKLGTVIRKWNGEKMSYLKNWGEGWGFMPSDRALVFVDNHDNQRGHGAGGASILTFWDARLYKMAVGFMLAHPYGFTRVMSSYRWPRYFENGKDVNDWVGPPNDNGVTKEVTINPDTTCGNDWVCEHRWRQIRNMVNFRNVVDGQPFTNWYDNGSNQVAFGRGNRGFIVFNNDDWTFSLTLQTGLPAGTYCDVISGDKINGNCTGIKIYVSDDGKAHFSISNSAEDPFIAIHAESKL

[8] = test system: Small intestinal mucosal enzyme

OCC1OC2OCC3O[C@H](O[C@H]4C(O)C(CO)OC(OCC5O[C@H](O[C@@H](C1O)C2O)C(O)C(O)[C@@H]5O)C4O)C(O)C(O)[C@@H]3O (stereo partly drawn) [cyclotetrasaccharide, cyclo{→6)-α-D-glucopyranosyl-(1→3)-α-D-glucopyranosyl-(1→6)-α-D-glucopyranosyl-(1→3)-α-D-glucopyranosyl-(1→}]
Saturation concentration (%) ([1]; 10 ° C.): 30.3% | Saturation concentration (%) ([1]; 30 ° C.): 34.2% | Saturation concentration (%) ([1]; 50 ° C.): 42.6% | Saturation concentration (%) ([1]; 70 ° C.): 53.0% | Saturation concentration (%) ([1]; 90 ° C.): 70.5% | Coloration degree (A480 nm) (Thermostability; heating time 0 min): 0.00 A480 nm | Purity (%) after heating (Thermostability; heating time 0 min): 100% | Coloration degree (A480 nm) (Thermostability; heating time 30 min): 0.00 A480 nm | Purity (%) after heating (Thermostability; heating time 30 min): 100% | Coloration degree (A480 nm) (Thermostability; heating time 60 min): 0.00 A480 nm | Purity (%) after heating (Thermostability; heating time 60 min): 100% | Coloration degree (A480 nm) (Thermostability; heating time 90 min): 0.00 A480 nm | Purity (%) after heating (Thermostability; heating time 90 min): 100% | Coloration degree (A480 nm) (pH stability; pH 2.0 (Acetate buffer)): 0.00 A480 nm | Purity (%) after heating (pH stability; pH 2.0 (Acetate buffer)): 93% | Coloration degree (A480 nm) (pH stability; pH 3.0 (Acetate buffer)): 0.00 A480 nm | Purity (%) after heating (pH stability; pH 3.0 (Acetate buffer)): 100% | Coloration degree (A480 nm) (pH stability; pH 4.0 (Acetate buffer)): 0.00 A480 nm | Purity (%) after heating (pH stability; pH 4.0 (Acetate buffer)): 100% | Coloration degree (A480 nm) (pH stability; pH 5.0 (Acetate buffer)): 0.00 A480 nm | Purity (%) after heating (pH stability; pH 5.0 (Acetate buffer)): 100% | Coloration degree (A480 nm) (pH stability; pH 6.0 (Tris-HCl buffer)): 0.00 A480 nm | Purity (%) after heating (pH stability; pH 6.0 (Tris-HCl buffer)): 100% | Coloration degree (A480 nm) (pH stability; pH 7.0 (Tris-HCl buffer)): 0.00 A480 nm | Purity (%) after heating (pH stability; pH 7.0 (Tris-HCl buffer)): 100% | Coloration degree (A480 nm) (pH stability; pH 8.0 (Tris-HCl buffer)): 0.00 A480 nm | Purity (%) after heating (pH stability; pH 8.0 (Tris-HCl buffer)): 100% | Coloration degree (A480 nm) (pH stability; pH 9.0 (Ammonium buffer)): 0.00 A480 nm | Purity (%) after heating (pH stability; pH 9.0 (Ammonium buffer)): 100% | Coloration degree (A480 nm) (pH stability; pH 10.0 (Ammonium buffer)): 0.00 A480 nm | Purity (%) after heating (pH stability; pH 10.0 (Ammonium buffer)): 100% | Coloration degree (A480 nm) ([2]; heating time 0 min): 0.00 A480 nm | Coloration degree (A480 nm) ([2]; heating time 30 min): 0.00 A480 nm | Coloration degree (A480 nm) ([2]; heating time 60 min): 0.00 A480 nm | Coloration degree (A480 nm) ([2]; heating time 90 min): 0.00 A480 nm | inclusion ability relative to that of the branched cyclodextrin by weight (Inclusion action): about 2 folds | Inclusion amount (mg/g lyophilized powder) (Inclusion action; inclusion product Acetic acid): 67.74 mg/g lyophilized powder | Inclusion amount (mg/g lyophilized powder) (Inclusion action; inclusion product Ethanol): 17.26 mg/g lyophilized powder | Inclusion amount (mg/g lyophilized powder) (Inclusion action; inclusion product Methanol): 6.71 mg/g lyophilized powder | cyclotetrasaccharide remained intact ([3]; 12 hours after the addition): 93% | level of cyclotetrasaccharide remained ([3]; 12 hours after the addition): 63.0 mg per one gram of the internal content of rat cecum | level of cyclotetrasaccharide remained ([3]; just after the addition): 68.0 mg per one gram of the internal content of rat cecum | Assimilability [4]: − (judged as negative (−) when the post culture had a pH of 6.0 or higher) | Assimilability [5]: − (judged as negative (−) when the post culture had a pH of 6.0 or higher) | Assimilability [6]: − (judged as negative (−) when the post culture had a pH of 6.0 or higher) | Assimilability [7]: − (judged as negative (−) when the post culture had a pH of 6.0 or higher) | LD50 (mice): at least 50 g/kg mouse body weight | Decomposition percentage (%) by digestive enzyme (salivary amylase): 0.0% | Decomposition percentage (%) by digestive enzyme [8]: 0.74% | digestibility level relative to that of maltitol [8]: ⅕
